Experimental data as given in patent US9133128B2, “Pyrazole derivatives as cannabinoid receptor 1 antagonists” (Research Triangle Institute, priority 2011, dated 2015).
Where two headings read alike, the source gives them in different places.

Key:
CB1 [1] = target: T1, CB1 (Homo sapiens, UniProt P21554); experiment: Displacement of [3H]CP55940 in membranes of CHO-K1 cells over-expressing CB1; assay type: binding; details: for Binding Selectivity using CP55940 Displacement: CB2 Ki over CB1 Ki
T1 construct: expressed in transfected cells; host or cells: CHO-K1 (membranes)
T1 sequence (P21554 whole entry): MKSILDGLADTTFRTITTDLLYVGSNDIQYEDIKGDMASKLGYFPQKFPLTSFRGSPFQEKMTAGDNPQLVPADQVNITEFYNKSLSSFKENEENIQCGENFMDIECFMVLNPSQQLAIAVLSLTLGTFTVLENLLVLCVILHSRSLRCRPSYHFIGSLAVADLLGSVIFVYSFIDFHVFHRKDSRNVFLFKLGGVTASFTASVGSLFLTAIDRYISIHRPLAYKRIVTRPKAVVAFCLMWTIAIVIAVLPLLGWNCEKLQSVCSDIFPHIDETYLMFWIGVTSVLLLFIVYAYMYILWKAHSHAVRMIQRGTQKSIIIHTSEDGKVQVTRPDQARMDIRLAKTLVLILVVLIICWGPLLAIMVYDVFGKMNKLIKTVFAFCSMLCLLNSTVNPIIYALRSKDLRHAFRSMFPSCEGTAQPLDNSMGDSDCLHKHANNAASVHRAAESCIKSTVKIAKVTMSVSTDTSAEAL

CB2 = target: T2, CB2 (Homo sapiens, UniProt P34972); experiment: Displacement of [3H]CP55940 in membranes of CHO-K1 cells over-expressing CB2; assay type: binding
T2 construct: expressed in transfected cells; host or cells: CHO-K1 (membranes)
T2 sequence (P34972 whole entry): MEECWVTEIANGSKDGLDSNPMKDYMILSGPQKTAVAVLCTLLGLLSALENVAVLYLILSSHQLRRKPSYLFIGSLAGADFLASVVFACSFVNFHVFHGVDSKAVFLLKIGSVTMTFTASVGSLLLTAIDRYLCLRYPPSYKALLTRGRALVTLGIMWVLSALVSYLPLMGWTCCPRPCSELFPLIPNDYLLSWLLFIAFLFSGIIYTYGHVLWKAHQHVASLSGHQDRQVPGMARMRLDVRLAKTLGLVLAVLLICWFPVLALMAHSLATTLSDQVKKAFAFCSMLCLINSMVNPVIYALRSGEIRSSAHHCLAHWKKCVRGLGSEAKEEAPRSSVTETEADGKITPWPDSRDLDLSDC
Method: All compounds were characterized by H^1 NMR and evaluated using a calcium mobilization assay. Each compound was pharmacologically characterized using a functional fluorescent CB1 activated Gαq16-coupled intracellular calcium mobilization assay in CHO-K1 cells as has been previously described and apparent affinity (Ke) values were determined. See Zhang et al., J. Med. Chem. 2010, 53, 7048, which is incorporated herein by reference. Further characterization of select compounds was performed using radioligand displacement of [3H]1 and equilibrium dissociation constant (Ki) values were determined. Selectivity of these compounds at CB1 versus CB2 was also determined by obtaining Ki values at either receptor using displacement of [3H]CP55940 in membranes of CHO-K1 cells over-expressing either receptor. Data reported are average values from 3-6 measurements.
Select compounds were chosen for further study in radioligand displacement assays using radiolabeled rimonobant, SR141716 ([^3H]1). […] Selectivity against the CB2 receptor was determined by comparing the compound displacement of radiolabeled CP55940, which is a cannabinoid known to act as a full agonist at both CB1 and CB2 receptors. In general, tested compounds were selective for CB1 over CB2.

MDCK-MDR = MDCK-MDR transport (apical to basal); assay type: in vitro ADME; details: Table 4
CB1 [2] = target: T1, CB1; experiment: Radioligand displacement of [3H]SR141716 at CB1; assay type: binding
CB1 [3] = target: T1, CB1; experiment: CB1 activated Gαq16-coupled intracellular calcium mobilization assay in CHO-K1 cells (apparent affinity Ke); assay type: cell-based
[4] = Table 4, read-out: Ki (nM) v. [3H] CP55940 at CB1
[5] = Table 4, read-out: Ki (nM) v. [3H] CP55940 at CB2
[6] = Table 4, read-out: Ki (nM) v. [3H] SR141716 at CB1
[7] = Table 4, calcium mobilization, read-out: Ke (nM) at CB1

| SMILES | Binding Selectivity using CP55940 Displacement (CB1 [1]; Table 4) | Ki (CB1 [1]; [4]) [nM] | Ki (CB2; [5]) [nM] | % MDCK-MDR transport (apical to basal) (MDCK-MDR) [%] | Ki (CB1 [2]; [6]) [nM] | other results |
| --- | --- | --- | --- | --- | --- | --- |
| Cc1c(C(=O)N2CCC(C(=O)NC(C)(C)C)(c3ccccc3)CC2)nn(-c2ccc(Cl)cc2Cl)c1-c1ccc(Cl)cc1 [Cl, phenyl, C(O)NH(t-butyl), N-(tert-butyl)-1-(5-(4-chlorophenyl)-1-(2,4-dichlorophenyl)-4-methyl-1H-pyrazole-3-carbonyl)-4-phenylpiperidine-4-carboxamide] | 421.6 | 19.9 | 8390 | <1 |  |  |
| Cc1c(C(=O)N2CCC(O)(c3ccccc3)CC2)nn(-c2ccc(Cl)cc2Cl)c1-c1ccc(Cl)cc1 [Cl, phenyl, OH, 1-{[5-(4-chlorophenyl)-1-(2,4-dichlorophenyl)-4-methyl-1H-pyrazol-3-yl]carbonyl}-4-hydroxy-4-phenylpiperidine] | 12.3 | 67.4 | 831 |  | 9.63 |  |
| CCNC1(C(N)=O)CCN(C(=O)c2nn(-c3ccc(Cl)cc3Cl)c(-c3ccc(Cl)cc3)c2C)CC1 [Cl, NHC2H5, C(O)NH2, 1-{[5-(4-chlorophenyl)-1-(2,4-dichlorophenyl)-4-methyl-1H-pyrazol-3-yl]carbonyl}-4-(ethylamino)piperidine-4-carboxamide] |  | 78.4 | 2220 |  | 34.6 |  |
| Cc1c(C(=O)N2CCC(NC(=O)NC(C)C)(c3ccccc3)CC2)nn(-c2ccc(Cl)cc2Cl)c1-c1ccc(Cl)cc1 [Cl, phenyl, NHC(O)NHCH(CH3)2, 1-(1-{[5-(4-chlorophenyl)-1-(2,4-dichlorophenyl)-4-methyl-1H-pyrazol-3-yl]carbonyl}-4-phenylpiperidin-4-yl)-3-(propan-2-yl)urea] | 364.0 | 13.5 | 4910 | <1 |  |  |
| Cc1c(C(=O)N2CCC(N)(c3ccccc3)CC2)nn(-c2ccc(Cl)cc2Cl)c1-c1ccc(Cl)cc1 [Cl, phenyl, NH2, 1-{[5-(4-chlorophenyl)-1-(2,4-dichlorophenyl)-4-methyl-1H-pyrazol-3-yl]carbonyl}-4-phenylpiperidin-4-amine] | 10.8 | 104 | 1130 |  | 30.5 | Kb (CB1 [3]; [7]): 485 nM |
| Cc1c(C(=O)N2CCC(C(N)=O)(c3ccccc3)CC2)nn(-c2ccc(Cl)cc2Cl)c1-c1ccc(Br)cc1 [Br, phenyl, CONH2, 1-{[5-(4-bromophenyl)-1-(2,4-dichlorophenyl)-4-methyl-1H-pyrazol-3-yl]carbonyl}-4-phenylpiperidine-4-carboxamide] | 226.3 | 14.5 | 3280 |  | 2.67 |  |
| Cc1c(C(=O)NCC2CCC(CNS(C)(=O)=O)CC2)nn(-c2ccc(Cl)cc2Cl)c1-c1ccc(Cl)cc1 (mixture of isomers) |  |  |  |  |  | Ki (CB1 [2]; Table 3, radioligand [3H]SR141716, read-out: Ki(μM) CB1 SR141716): 8 nM; Ki (CB1 [1]; Table 3, radioligand [3H]CP55940, read-out: Ki(μM) CB1 CP55940): 36 nM; Ki (CB2; Table 3, radioligand [3H]CP55940, read-out: Ki(μM) CB2 CP55940): 960 nM |
| CC(=O)NC1(c2ccccc2)CCN(C(=O)c2nn(-c3ccc(Cl)cc3Cl)c(-c3ccc(Cl)cc3)c2C)CC1 [Cl, phenyl, NHC(O)CH3, N-(1-{[5-(4-chlorophenyl)-1-(2,4-dichlorophenyl)-4-methyl-1H-pyrazol-3-yl]carbonyl}-4-phenylpiperidin-4-yl)acetamide] | 3.4 | 62.6 | 214 |  | 13.7 | Kb (CB1 [3]; [7]): 201 nM |
| Cc1c(C(=O)N2CCC(C(N)=O)(c3ccccc3)CC2)nn(-c2ccc(Cl)cc2Cl)c1-c1ccc(Cl)cc1 [Cl, phenyl, C(O)NH2, 1-{[5-(4-chlorophenyl)-1-(2,4-dichlorophenyl)-4-methyl-1H-pyrazol-3-yl]carbonyl}-4-phenylpiperidine-4-carboxamide] | 1600.0 | 3.44 | 5500 | 8.1 ± 11.5 | 0.44 | Kb (CB1 [3]): 0.45 nM |
| Cc1c(C(=O)N2CCC(NS(C)(=O)=O)(c3ccccc3)CC2)nn(-c2ccc(Cl)cc2Cl)c1-c1ccc(Cl)cc1 [Cl, phenyl, NHSO2CH3, N-(1-{[5-(4-chlorophenyl)-1-(2,4-dichlorophenyl)-4-methyl-1H-pyrazol-3-yl]carbonyl}-4-phenylpiperidin-4-yl)methanesulfonamide] | 5.6 | 7.27 | 41 | 3.14 ± 0.89 | 3.28 |  |
| Cc1c(C(=O)N2CCC(NC(=O)OC(C)(C)C)(c3ccccc3)CC2)nn(-c2ccc(Cl)cc2Cl)c1-c1ccc(Cl)cc1 [Cl, phenyl, NHC(O)O(t-butyl), tert-Butyl N-(1-{[5-(4-chlorophenyl)-1-(2,4-dichlorophenyl)-4-methyl-1H-pyrazol-3-yl]carbonyl}-4-phenylpiperidin-4-yl)carbamate] | 48.9 | 42.3 | 2110 | <1 | 6.02 |  |
| Cc1c(C(=O)N2CCC(O)(c3ccccc3)CC2)nn(-c2ccc(Cl)cc2Cl)c1-c1ccc(N(C)C)cc1 [N(CH3)2, phenyl, OH, 1-{[1-(2,4-dichlorophenyl)-5-[4-(dimethylamino)phenyl]-4-methyl-1H-pyrazol-3-yl]carbonyl}-4-phenylpiperidin-4-ol] | 1.0 | 384 | 400 |  | 72.5 | Kb (CB1 [3]; [7]): 679 nM |
| Cc1c(C(=O)N2CCC(NC(=O)NC(C)(C)C)(c3ccccc3)CC2)nn(-c2ccc(Cl)cc2Cl)c1-c1ccc(Cl)cc1 [Cl, phenyl, NHC(O)NH(t-butyl), 3-tert-butyl-1-(1-{[5-(4-chlorophenyl)-1-(2,4-dichlorophenyl)-4-methyl-1H-pyrazol-3-yl]carbonyl}-4-phenylpiperidin-4-yl)urea] | 424.6 | 47.1 | ≥ 20000 | <1 | 18.1 |  |
| CCCCNC(=O)NC1(c2ccccc2)CCN(C(=O)c2nn(-c3ccc(Cl)cc3Cl)c(-c3ccc(Cl)cc3)c2C)CC1 [Cl, phenyl, NHC(O)NHC4H9, 3-butyl-1-(1-{[5-(4-chlorophenyl)-1-(2,4-dichlorophenyl)-4-methyl-1H-pyrazol-3-yl]carbonyl}-4-phenylpiperidin-4-yl)urea] | 178.1 | 15.5 | 2760 |  |  | Kb (CB1 [3]; [7]): 0.41 nM |
| CCOC(=O)N1CCC(NC(=O)c2nn(-c3ccc(Cl)cc3Cl)c(-c3ccc(Cl)cc3)c2C)CC1 [OC2H5, Ethyl 4-[5-(4-Chlorophenyl)-1-(2,4-dichlorophenyl)-4-methyl-1H-pyrazole-3-amido]piperidine-1-carboxylate] |  |  |  |  |  | Kb (CB1 [3]): 28.6 nM; Binding Selectivity using CP55940 Displacement (CB1 [1]; Table 5): 551.1; Ki (CB1 [1]; Table 5, read-out: Ki (nM) v. [3H] CP55940 at CB1): 14.6 nM; Ki (CB2; Table 5, read-out: Ki (nM) v. [3H] CP55940 at CB2): 8070 nM |
